Test system: M109 cells
Assay: Effect of isolated folate-fluorescein conjugates on growth of solid tumors (subcutaneous M109 tumors in fluorescein-immunized mice)
Type: in vivo
Conditions: female Balb/c mice preimmunized with KLH-fluorescein; s.c. M109 tumor; 500, 2000 or 5000 nmol/kg i.p., days 1-19; in combination with IL-2 and IFN-α; versus PBS control; FIG. 2
Procedure: Six to eight-week old (˜20-22 grams) female Balb/c mice (8 mice/group) were immunized subcutaneously at multiple sites with fluorescein-labeled keyhole limpet hemocyanin (KLH) using a commercial saponin adjuvant (GPI-0100; Galenica). After assuring that anti-fluorescein antibody titers were high in all mice (as evidenced by the results of ELISA assays of serum samples of the mice), each animal was injected subcutaneously in the shoulder with 1×10^6 M109 cells (a syngeneic lung cancer cell line that expresses high levels of the folate receptor; day 0) following prior immunization with KLH-fluorescein. The immunizations with folate-fluorescein after tumor cell implantation consisted of 500, 2000, or 5000 nmol/kg of folate-fluorescein, conjugated via a gamma carboxyl-linked ethylene diamine bridge, given in 19 intraperitoneal doses at 24 hour intervals (days 1-19). Control animals were injected with phosphate buffered saline (PBS). A series of 5 daily injections (five times a week) for three weeks of 20,000 IU/day of recombinant human IL-2 were administered to all mice in order to stimulate the immune system. A series of 3 injections for three weeks of 25,000 U/day of recombinant human IFN-α were also administered to all mice. The efficacy of this immunotherapy was then evaluated by monitoring tumor volume (mm^3) using a caliper.

Nc1nc2ncc(CNc3ccc(C(=O)NC(CCC(=O)NCCNC(=S)Nc4ccc5c(c4)C(=O)OC54c5ccc(O)cc5Oc5cc(O)ccc54)C(=O)O)cc3)nc2c(=O)[nH]1 (stereo not shown) [folate-fluorescein]
growth of solid tumors (tumor volume): significantly inhibited
